Here are results for 28 molecules from patent US20110236359A1 (priority 2007, published 2011).

Broadly, the MIC is the smallest concentration in the dilution series that meets the test's criterion for growth inhibition.

Common to all, as to assay: Antibiotic MIC plates (resistance profile)
Holding throughout (assay type): cell-based

The test system of test [1] is Lactobacillus rhamnosus GG (ATCC 53103). The conditions noted are these: median of two repetitions. The text has this:
(§1) The protocol was adapted from Delgado et al. (2005). Minimum Inhibitory Concentration (MIC) Plate (# GPN3F) and Anaerobe MIC Plate (# AN02B) were used to determine the antibiotic sensitivity and resistance profile of MM19 and MM33 according to the instructions of the manufacturer (Trek Diagnostic Systems; Nova Century, Burlington, ON, Canada).
(§2) Lactococcus lactis subsp. lactis MM19, Pediococcus acidilactici MM33 and Lactobacillus rhamnosus GG (ATCC 53103) from frozen glycerol stock were first inoculated in Lactobacilli MRS and incubated at 37° C. for 18 h. 100 μl of this culture were further incubated under the same conditions. This second culture was then inoculated on a MRS agar plate and incubated at 37° C. for 48 h under anaerobic conditions using GasPak Plus system (BD BBL, Sparks, Md., USA).

Test [2] has as its system Lactococcus lactis subsp. lactis MM19. The conditions noted are these: MM19, median of two repetitions.
Text: as §1, §2

Test [3] deals with Pediococcus acidilactici MM33. As to conditions: median of two repetitions.
Text: as §1, §2

Setting [4] is: Lacticaseibacillus rhamnosus, ATCC53103, L. rhamnosus GG, ANO2 plate, read-out: MIC.
The mark [5] stands for this setting: Lacticaseibacillus rhamnosus, ATCC53103, L. rhamnosus GG, GPN3F plate, read-out: MIC.
Where [6] appears, read: Lactococcus lactis, ANO2 plate, read-out: MIC.
Where [7] appears, read: Lactococcus lactis, GPN3F plate, read-out: MIC.
The mark [8] stands for this setting: Pediococcus acidilactici, MM33, MM33, ANO2 plate, read-out: MIC.
Setting [9] is: Pediococcus acidilactici, MM33, MM33, GPN3F plate, read-out: MIC.

In brackets after ≈: the same amount, converted by molar mass. Like-named read-outs stand apart in the source and are kept apart here.

Regarding `CC1(C)S[C@@H]2[C@H](NC(=O)[C@H](N)c3ccccc3)C(=O)N2[C@H]1C(=O)O` [AMP, Ampicillin], the MIC in test [1] (setting [4]) is 1 µg/mL (≈ 2.86 µM); in test [1] (setting [5]), 1 µg/mL (≈ 2.86 µM); in test [2] (setting [6]), less than 0.5 µg/mL; in test [2] (setting [7]), 0.12 to 0.25 µg/mL (≈ 0.343 to 0.715 µM); in test [3] (setting [8]) it was 4 µg/mL (≈ 11.4 µM); in test [3] (setting [9]), 2 µg/mL (≈ 5.72 µM).

As to `CO/N=C(\C(=O)N[C@@H]1C(=O)N2C(C(=O)O)=C(CSc3nc(=O)c(=O)[nH]n3C)CS[C@H]12)c1csc(N)n1` [AXO, Ceftriaxone], the MIC in test [1] (setting [5]) is 32 to 64 µg/mL (≈ 57.7 to 115 µM); in test [2] (setting [7]), less than 8 µg/mL; in test [3] (setting [9]), 16 µg/mL (≈ 28.9 µM).

On to `O=C(N[C@H](CO)[C@H](O)c1ccc([N+](=O)[O-])cc1)C(Cl)Cl` [CHL, Chloramphenicol], for which the figures for the MIC in test [1] (setting [4]), in test [2] (setting [6]) and in test [3] (setting [8]) were 8 µg/mL (≈ 24.8 µM), 4 µg/mL (≈ 12.4 µM) and 16 µg/mL (≈ 49.5 µM), respectively.

`O=C(O)c1cn(C2CC2)c2cc(N3CCNCC3)c(F)cc2c1=O` [CIP, Ciprofloxacin]: the MIC in test [1] (setting [5]) is 1 µg/mL (≈ 3.02 µM); in test [2] (setting [7]), 2 µg/mL (≈ 6.04 µM).

For `CCC[C@@H]1C[C@@H](C(=O)N[C@@H]([C@H]2O[C@H](SC)[C@H](O)[C@@H](O)[C@H]2O)[C@H](C)Cl)N(C)C1` [CLI, Clindamycin], the minimum inhibitory concentration (MIC) in test [1] (setting [4]) was 0.5 µg/mL (≈ 1.18 µM); in test [1] (setting [5]) it was less than 0.12 µg/mL; in test [2] (setting [6]) it was 0.5 µg/mL (≈ 1.18 µM); in test [2] (setting [7]), 0.25 µg/mL (≈ 0.588 µM); in test [3] (setting [8]) it was less than 0.25 µg/mL; in test [3] (setting [9]), less than 0.12 µg/mL.

As for `CCCCCCCCCC(=O)N[C@@H](Cc1c[nH]c2ccccc12)C(=O)N[C@H](CC(N)=O)C(=O)N[C@@H](CC(=O)O)C(=O)N[C@@H]1C(=O)NCC(=O)N[C@@H](CCCN)C(=O)N[C@@H](CC(=O)O)C(=O)N[C@H](C)C(=O)N[C@@H](CC(=O)O)C(=O)NCC(=O)N[C@H](CO)C(=O)N[C@@H]([C@H](C)CC(=O)O)C(=O)N[C@@H](CC(=O)c2ccccc2N)C(=O)O[C@@H]1C` [DAP, Daptomycin], the figures for the MIC in test [1] (setting [5]), in test [2] (setting [7]) and in test [3] (setting [9]) were 2 µg/mL (≈ 1.23 µM), 0.5 to 1 µg/mL (≈ 0.309 to 0.617 µM) and 1 µg/mL (≈ 0.617 µM), respectively.

Take `CC[C@H]1OC(=O)[C@H](C)[C@@H](O[C@H]2C[C@@](C)(OC)[C@@H](O)[C@H](C)O2)[C@H](C)[C@@H](O[C@@H]2O[C@H](C)C[C@H](N(C)C)[C@H]2O)[C@](C)(O)C[C@@H](C)C(=O)[C@H](C)[C@@H](O)[C@]1(C)O` [ERY, Erythromycin]: the minimum inhibitory concentration (MIC) in test [1] (setting [5]), in test [2] (setting [7]) and in test [3] (setting [9]) was less than 0.25 µg/mL in each case.

For the molecule `CO[C@@]1(NC(=O)Cc2cccs2)C(=O)N2C(C(=O)O)=C(COC(N)=O)CS[C@@H]21` [FOX, Cefoxitin], the MIC in test [1] (setting [4]), in test [2] (setting [6]) and in test [3] (setting [8]) was greater than 32 µg/mL each time.

With `COc1c(N2CCNC(C)C2)c(F)cc2c(=O)c(C(=O)O)cn(C3CC3)c12` (stereo not shown) [GAT, Gatofloxacin], the MIC is less than 1 µg/mL in test [1] (L. rhamnosus GG, GPN3F plate); less than 1 µg/mL in test [2] (GPN3F plate); less than 1 µg/mL in test [3] (MM33, GPN3F plate).

Regarding `C[C@@H](O)[C@H]1C(=O)N2C(C(=O)O)=C(SCCN=CN)C[C@H]12` [IMI, Imipenem], the minimal inhibitory concentration (MIC) in test [1] (setting [4]) worked out at 2 µg/mL (≈ 6.68 µM); in test [2] (setting [6]), 0.25 µg/mL (≈ 0.835 µM); in test [3] (setting [8]), 0.5 µg/mL (≈ 1.67 µM).

Turning to `C[C@H]1COc2c(N3CCN(C)CC3)c(F)cc3c(=O)c(C(=O)O)cn1c23` [LEVO, Levofloxacin], the MIC in test [1] (setting [5]) was 2 to 4 µg/mL (≈ 5.53 to 11.1 µM); in test [2] (setting [7]), 0.5 µg/mL (≈ 1.38 µM); in test [3] (setting [9]), greater than 8 µg/mL.

With `CC(=O)NC[C@H]1CN(c2ccc(N3CCOCC3)c(F)c2)C(=O)O1` [LZD, Linezolid], the MIC in test [1] (setting [5]) was 1 to 2 µg/mL (≈ 2.96 to 5.93 µM); in test [2] (setting [7]), 2 µg/mL (≈ 5.93 µM); in test [3] (setting [9]), 4 to 8 µg/mL (≈ 11.9 to 23.7 µM).

In the case of `C[C@@H](O)[C@H]1C(=O)N2C(C(=O)O)=C(S[C@@H]3CN[C@H](C(=O)N(C)C)C3)[C@H](C)[C@H]12` [MERO, Meropenem], the MIC in test [1] (setting [4]) was 8 µg/mL (≈ 20.9 µM); in test [2] (setting [6]), less than 0.5 µg/mL; in test [3] (setting [8]), 2 µg/mL (≈ 5.22 µM).

For the molecule `CC1(C)S[C@@H]2[C@H](NC(=O)[C@H](NC(=O)N3CCN(S(C)(=O)=O)C3=O)c3ccccc3)C(=O)N2[C@H]1C(=O)O` [MEZ, Mezlocillin], the minimal inhibitory concentration (MIC) was less than 4 µg/mL in test [1] (setting [4]), less than 4 µg/mL in test [2] (setting [6]) and 8 µg/mL (≈ 14.8 µM) in test [3] (setting [8]).

As for `Cc1ncc([N+](=O)[O-])n1CCO` [MRD, Metronidazole], the minimum inhibitory concentration (MIC) in test [1] (setting [4]), in test [2] (setting [6]) and in test [3] (setting [8]) was greater than 16 µg/mL in each case.

Turning to `CCN1CCN(C(=O)N[C@@H](C(=O)N[C@@H]2C(=O)N3[C@@H]2SC(C)(C)[C@@H]3C(=O)O)c2ccccc2)C(=O)C1=O` [PIP, Piperacillin], the MIC in test [1] (setting [4]) was less than 4 µg/mL; in test [2] (setting [6]), less than 4 µg/mL; in test [3] (setting [8]), 8 µg/mL (≈ 15.5 µM).

For `CO[C@H]1/C=C/O[C@@]2(C)Oc3c(C)c(O)c4c(O)c(c(/C=N/N5CCN(C)CC5)c(O)c4c3C2=O)NC(=O)/C(C)=C\C=C\[C@H](C)[C@H](O)[C@@H](C)[C@@H](O)[C@@H](C)[C@H](OC(C)=O)[C@@H]1C` [RIF, Rifampin], the MIC was less than 0.5 µg/mL in test [1] (setting [5]), greater than 4 µg/mL in test [2] (setting [7]) and 0.5 to 1 µg/mL (≈ 0.608 to 1.22 µM) in test [3] (setting [9]).

For the molecule `[H]/N=C(/N)N[C@H]1[C@H](O)[C@@H](O)[C@H](O[C@@H]2O[C@@H](C)[C@](O)(C=O)[C@H]2O[C@@H]2O[C@@H](CO)[C@H](O)[C@@H](O)[C@@H]2NC)[C@@H](N/C(N)=N\[H])[C@@H]1O` [STR, Streptomycin], the MIC in test [1] (setting [5]), in test [2] (setting [7]) and in test [3] (setting [9]) was less than 1000 µg/mL each time.

Turning to `CO[C@@]1(NC(=O)C2SC(=C(C(N)=O)C(=O)O)S2)C(=O)N2C(C(=O)O)=C(CSc3nnnn3C)CS[C@@H]21` (stereo partly shown) [TANS, Cefotetan], the MIC in test [1] (setting [4]), in test [2] (setting [6]) and in test [3] (setting [8]) was greater than 64 µg/mL throughout.

Turning to `CN(C)[C@@H]1C(O)=C(C(N)=O)C(=O)[C@@]2(O)C(O)=C3C(=O)c4c(O)cccc4[C@@](C)(O)[C@H]3C[C@@H]12` [TET, Tetracycline], the MIC in test [1] (setting [4]) was 1 µg/mL (≈ 2.25 µM); in test [1] (setting [5]), less than 2 µg/mL; in test [2] (setting [6]), 0.375 µg/mL (≈ 0.844 µM); in test [2] (setting [7]) it was less than 2 µg/mL; in test [3] (setting [8]), greater than 8 µg/mL; in test [3] (setting [9]), greater than 16 µg/mL.

Consider Amoxicillin/Clavulanic acid [AUG], for which the MIC in test [3] (MM33, ANO2 plate) is on record as 4/2.

With Ampicillin/Sulbactam [A/S], the minimum inhibitory concentration (MIC) in test [3] (MM33, ANO2 plate) is 4/2.

As to Gentamicin, the MIC in test [1] (L. rhamnosus GG, GPN3F plate) was less than 2 µg/mL; in test [2] (GPN3F plate), 2 to 4 µg/mL; in test [3] (MM33, GPN3F plate), less than 2 µg/mL.

For the molecule Oxacillin + 2% NaCl [OXA+], the minimum inhibitory concentration (MIC) is 0.25 to 0.5 µg/mL in test [1] (L. rhamnosus GG, GPN3F plate); 1 µg/mL in test [2] (GPN3F plate); 2 µg/mL in test [3] (MM33, GPN3F plate).

Consider Penicillin, for which the MIC is 0.5 µg/mL in test [1] (L. rhamnosus GG, ANO2 plate); 0.5 µg/mL in test [1] (L. rhamnosus GG, GPN3F plate); 0.5 µg/mL in test [2] (ANO2 plate); 0.25 to 0.5 µg/mL in test [2] (GPN3F plate); 1 µg/mL in test [3] (MM33, ANO2 plate); 0.5 µg/mL in test [3] (MM33, GPN3F plate).

Regarding Piperacillin/Tazobactam [P/T], the MIC in test [1] (L. rhamnosus GG, ANO2 plate) is 1/4; in test [2] (ANO2 plate) it was 2/4; in test [3] (MM33, ANO2 plate), 8/4.

Consider Quinupristin/Dalfopristin [SYN], for which the MIC is 1 to 2 µg/mL in test [1] (L. rhamnosus GG, GPN3F plate); 4 µg/mL in test [2] (GPN3F plate); 1 µg/mL in test [3] (MM33, GPN3F plate).

With Trimethoprim/Sulfamethoxazole [SXT], the MIC is >4/76 in test [1] (L. rhamnosus GG, GPN3F plate); >4/76 in test [2] (GPN3F plate); >4/76 in test [3] (MM33, GPN3F plate).
